Data from publication PMC6151740, “Pharmacokinetics, Tissue Distribution, and Elimination of Three Active Alkaloids in Rats after Oral Administration of the Effective Fraction of Alkaloids from Ramulus Mori, an Innovative Hypoglycemic Agent” (Molecules : A Journal of Synthetic Chemistry and Natural …, 2017).
Where “and” joins values, the source holds several entries; their conditions need not be identical. Equal values may be shown once.

What was measured:
[1] = In vitro incubation of SZ–A with rat intestinal homogenate; assay type: in vitro ADME; conditions: SZ–A 10.87 μg/mL, with/without NADPH generation, 37 °C, 120 min
Description: Pooled rat intestinal homogenate from six males was prepared using a tissue homogenizer with ice cold normal saline solution at a proportion of 1:3 (w/v). SZ–A was incubated with rat intestinal homogenate (5 mg protein/mL) with/without a NADPH-generating system (0.011 M β-NADP, 0.1 M glucose 6-phosphate, 10 U/mL glucose-6-phosphate dehydrogenase) in a 37 °C water bath for 120 min. Meanwhile, caecal content was collected and mixed with anaerobic medium (1:30, w/v) to prepare the cultures under nitrogen atmosphere at 37 °C for 120 min. SZ–A and rat caecal microbiota cultures were incubated at a total volume of 200 μL with the boiled samples as the negative control, concomitantly. The incubation was stopped at 2 h by adding two volumes of methanol–acetonitrile (1:3, v/v). Triplicate supernatants were taken by centrifugation at 18,880× g for 5 min and stored at −20 °C until LC-MS/MS analysis. The results were expressed as the percentage of the concentration at 0 min.

[2] = Tissue distribution in rats after oral SZ–A; assay type: in vivo; conditions: Sprague-Dawley, pancreas, rat, SZ–A 40 mg/kg p.o., 0.25, 0.5 and 2 h, n = 3, read-out: tissue to plasma ratio (T/P) in the pancreas
Description: Three groups of rats (three rats in each group) were administered with a single oral dose of SZ–A at 40 mg/kg. Rats each were sacrificed and various tissues, including liver, kidney, pancreas, stomach, duodenum, jejunum, ileum, cecum, colon, and the content in the gastrointestinal tract were collected at 0.25, 0.5, and 2 h time points. One additional rat was sacrificed predose to provide control tissues for analysis. After removing blood or content and weighing, each sample was individually homogenized with normal saline solution (1:3, w/v for tissue; 1:9, w/v for content) using a tissue homogenizer (Polytron PT1600E, Kinematica, Luzern, Switzerland) and stored at −20 °C until LC-MS/MS analysis.

[3] = Excretion into urine, feces and bile in rats after oral SZ–A; assay type: in vivo; conditions: rat, SZ–A 40 mg/kg p.o.; for dose excreted: bile, po, within 32 h, read-out: recovery in bile (% of dose); for cumulative excretion into feces (% of dose) / cumulative excretion into urine (% of dose): over a 24 h period, n = 5
Description: Five rats were kept in the metabolic cages with free access to water and food 2 h post dose. Urine was collected before dosing and at 0–4, 4–8, 8–24, 24–36, and 36–48 h, and feces was simultaneously collected before dosing and at 0–24, 24–36, and 36–48 h after oral dosing of SZ–A (40 mg/kg). Feces samples were dried and grinded into powder, then homogenized with normal saline solution (1:9, w/v). Additionally, the bile duct of rats under ether anesthesia were cannulated with a PE-10 tube (Portex Ltd., Kent, UK). Bile was collected before dosing and at 0–1, 1–2, 2–4, 4–6, 6–10, 10–20, 20–24, 24–28, and 28–32 h following oral administration of SZ–A (40 mg/kg). All urine, feces, and bile samples were stored at −20 °C until LC-MS/MS analysis.

[4] = DNJ 110 mg/kg ingested; cited from earlier work
[5] = In situ single-pass intestinal perfusion (rat jejunum, mesenteric vein blood); assay type: in vivo; conditions: by 60 min, n = 5
Description: The surgical procedures were similar to those described elsewhere. The Hank’s balanced salt solution (HBSS, pH = 7.4) with SZ–A (21.73 μg/mL) or DNJ (50 μM) at 37 °C was infused into the jejunum at 0.3 mL/min individually. Phenol Red (50 μM) was added to serve as a nonabsorbable marker for measuring water flux. The blood from mesenteric vein and perfusate were collected at five-minute intervals. The plasma was separated by centrifugation and perfusate were immediately frozen at −20 °C for LC-MS/MS analysis. Atenolol and propranolol, the low- and high-permeability markers, were used to check the integrity of the intestinal membrane.

Row | SMILES | amount of alkaloid after incubation in rat intestinal homogenate [1] | Kp [2] | dose excreted [3] [%] | cumulative excretion into feces (% of dose) [3] [%] | cumulative excretion into urine (% of dose) [3] [%] | fraction of ingested DNJ incorporated into the rat plasma [4] [%] | cumulative amount per unit of area absorbed into the mesenteric venous blood ([5]; perfusion of SZ–A 21.73 μg/mL (containing 50 μM DNJ)) [pmol/cm^2] | cumulative amount per unit of area absorbed into the mesenteric venous blood ([5]; perfusion of purified DNJ 50 μM) [pmol/cm^2] | total excretive amount (urine and feces) relative to the oral dose [3] | cumulative excretion into feces (% of dose) ([3]; 40 mg/kg)
1 | OC[C@H]1NC[C@@H](O)[C@@H]1O [DAB, 1,4-dideoxy-1,4-imino-D-arabinitol] | not changed significantly | 0.09 to 0.59 | 0.35 | 34.05 | 52.91 |  |  |  |  | 
2 | OC[C@H]1NC[C@H](O)[C@@H](O)[C@@H]1O [DNJ, 1-deoxynojirimycin] | not changed significantly | 0.06 to 0.47 | 0.29 | 43.97 | 65.32 | 1 | 2136.1 | 1787.1 |  | 
3 | OC[C@H]1NCC[C@@H](O)[C@@H]1O [FGM, fagomine] | not changed significantly | 0.18 to 1.13 | 0.5 |  | 65.36 |  |  |  | about two-fold | 131.4% and 131.41%
